# Experiment: physchem
# Assay type: physicochemical
# Details: water, Approximate Solubility
# Procedure: Despite this, the screen offered a list of suitable solvents/solvent mixtures and anti-solvents to be used for the crystallization experiments. Using information obtained from the initial investigation into the solubility of IO-125, a series of bench scale crystallization experiments were carried out in order to provide examples of solution-based crystallization method that yield crystalline IO-125. Within this investigation, a number of techniques were designed to find suitable crystallization conditions including: using controlled linear cooling of IO-125 in different solvents, anti-solvent additions, evaporations and seeding. […] A significant mass loss was then observed in thermogravimetric trace from approx. 270° C., and was coupled with a large endothermic event with onset of 288.4° C. and peak at 297.2° C. in the differential thermogram. Again, this is likely associated with the decomposition of IO-125.
# Initially a series of solvents and mixture of solvents were screened to select suitable solvents for the crystallization procedure.
smiles,measurement,value
CC(C)CCC[C@@H](C)[C@H]1CCC2C3CC=C4C[C@@H](OCCN(CC(=O)[O-])CC(=O)[O][Pt+]5[NH][C@@H]6CCCC[C@H]6[NH]5)CC[C@]4(C)C3CC[C@@]21C (stereo partly shown) [Comp 25],solubility,≤ 10000 µg/mL

# From patent publication US10800801B2, “Crystalline platinum-based compounds” (AKAMARA THERAPEUTICS, INC., priority 2016, dated 2020)
